Reference: US20250263496A1, “Neutrophil-Activating Therapy for the Treatment of Cancer” (The Board of Trustees of the Leland Stanford Junior …, priority 2024, published 2025)

What was measured:
B16 cells = test: Mouse in vitro cytotoxicity (EuTDA), B16 cells co-cultured with neutrophils; format: cell-based; details: for effect of agent on ex vivo killing of tumor cells by neutrophils: neutrophils from treated tumors stimulated with neutrophil-activating therapy
Experimental: B16 tumors were treated by intratumoral injection of TNF+anti-CD40+anti-gp75 and harvested 12 hours post-treatment. Tumors were dissected away from any surrounding fat, minced, and digested in 5 mg/ml collagenase IV (Worthington) plus 0.1 mg/ml DNase I (Sigma) with continuous mixing by magnetic stir bars for 20 minutes at 37° C. in RPMI-1640 (Gibco) with 2% FBS. Following digestion, tissue was mashed through a […] cell strainer (Falcon) and washed. For some studies, bone marrow was harvested by grinding bones from tumor-naive untreated mice in a mortar and pestle and mashing through a […] strainer (Falcon). Neutrophils were isolated from tumor and bone marrow samples with the MojoSort Mouse Ly6G Selection Kit (BioLegend), according to the manufacturer's instructions, and used in the cytotoxicity assay.
Cytotoxicity assays were conducted using the EuTDA assay from the DELFIA TRF cytotoxicity kit (PerkinElmer) according to the manufacturer's instructions. Briefly, B16 cells were labeled for 10 minutes with BATDA, and 5×10^3 labeled cells were added per well to a 96 well V-bottom plate in RPMI-1640. Neutrophils were added at a ratio of 10:1 unless otherwise stated. All co-cultures were conducted in the presence of TNF (10 ng/ml), anti-CD40 (1 μg/ml), anti-gp75 (1 μg/ml), and 10% active mouse C57BL/6 complement serum (Innovative Research), except where indicated otherwise. Mouse C57BL/6 complement serum was heat-inactivated for 40 minutes at 57° C. where inactivation is specified. In some experiments, mouse IgG2a isotype control (1 μg/ml, isotype control for anti-gp75, clone C1.18.4, Bio X Cell), anti-mouse CD16/CD32 (10 μg/ml, clone 2.4G2, Bio X Cell), recombinant mouse C5a (50 nM, R&D Systems), anti-C5a (25 μg/ml, clone 295108, R&D Systems), rat IgG2a isotype control (25 μg/ml, isotype control for anti-C5a, clone 2A3, Bio X Cell), anti-C5AR1 (5 μg/ml, clone 20/70, BioLegend), rat IgG2b isotype control (5 μg/ml, isotype control for anti-C5AR1, clone LTF-2, Bio X Cell), SC57461A (10 μM, Cayman Chemical), CP-105696 (1 μM, Sigma), topiroxostat (10 μM, MedChem Express), or DMSO (vehicle for SC57461A, CP-105696, and topiroxostat) were added to the wells with the B16 and neutrophils. After 4 hours of co-culture at 37° C., supernatant was taken from the wells, Europium solution was added, and TDA released from lysed B16 cells was detected by […] on a Victor X4 fluorescence microplate reader (PerkinElmer). Percent maximal lysis was determined by calculating the specific release of TDA using the formula: (experimental release−spontaneous release)/(maximum release −spontaneous release), where spontaneous release was determined by wells containing no neutrophils and maximum release was determined by wells with lysis buffer added.
For trogocytosis studies investigating transfer of tumor-binding antibody, anti-gp75 labeled with AF647 (clone TA99, Novus Biologicals) was used in place of unlabeled anti-gp75. For studies investigating transfer of B16 cell membrane, DiD′ Solid (ThermoFisher Scientific) was reconstituted in DMSO at 10 mg/ml and diluted to a working solution of 5 μg/ml in serum-free DMEM. B16 cells were labeled in this solution for 20 minutes at 37° C. at 1×10^6 cells/ml. Labeled B16 was washed 3 times in warm media before being added to the co-culture wells with the neutrophils. Following co-culture, flow cytometry was used to identify DiD signal in neutrophils.

B16 tumors = test: TUNEL staining of cell death in B16 tumors; format: in vivo, mouse; details: agent given prior to neutrophil-activating therapy
Experimental: Tumors were dissected away from surrounding fat, fixed in 2% paraformaldehyde for 2 hours at 4° C., equilibrated in a 30% sucrose solution at 4° C., and embedded and frozen in O.C.T. Compound (Tissue-Tek). Slides were cut to […] and blocked with 1% BSA and 10% serum matched to the secondary antibody species. The following antibodies were used for immunofluorescence: PE anti-Ly6G (clone 1A8, BioLegend), DyLight 650 anti-gp75 (clone TA99, Bio X Cell, labeled using DyLight 650 NHS Ester (Thermo Scientific)), fluorescein anti-gp75 (clone TA99, Bio X Cell, labeled using NHS-Fluorescein (Thermo Scientific)), FITC anti-DNA/RNA damage (clone 15A3, recognizing 8-hydroxy-2′-deoxyguanosine/8-oxo-7,8-dihydroguanine/8-oxo-7,8-dihydroguanosine, Abcam), and AF647 anti-C3 (clone 11H9, Novus Biologicals). DAPI (Invitrogen) was stained at 1 μg/ml. FITC/fluorescein signal was amplified using AF488 anti-FITC (ThermoFisher Scientific), and PE was amplified using biotin anti-PE (clone PE001, BioLegend) followed by DyLight 594 streptavidin (BioLegend) or DyLight 649 streptavidin (BioLegend). Prior to use of biotinylated antibodies, endogenous biotin was blocked using the Avidin/Biotin Blocking Kit (Vector Laboratories). Prior to DNA/RNA damage staining, sections were permeabilized with 0.1% Triton X-100 in 0.1% sodium citrate. TUNEL (Terminal deoxynucleotidyl transferase dUTP nick end labeling) staining was performed using the In Situ Cell Death Detection Kit, TMR Red (Roche) according to the manufacturer's instructions. […] All parameters that were quantified were acquired with identical microscope settings and adjusted identically in Photoshop, and all adjustments were applied equally across the entire tumor. Quantification was performed in ImageJ, using the wand tool on the overlaid multichannel image to draw a border around the tumor and then measuring the percent area within that border with signal for the channel of the marker quantified.

naive neutrophils = test: Mouse in vitro neutrophil stimulations; format: cell-based
Experimental: Mouse in vitro neutrophil stimulations. Bone marrow was harvested by grinding bones in a mortar and pestle and mashing through a […] strainer (Falcon). Neutrophils were isolated by negative selection with the MojoSort Mouse Neutrophil Isolation Kit (BioLegend). Following isolation, neutrophils were plated in Opti-MEM (Gibco) at 1×10^5 cells in 100 μl and stimulated with 10 ng/ml TNF, 1 μg/ml anti-CD40, 1 μg/ml anti-gp75, and/or 50 nM recombinant mouse C5a (R&D Systems) for 30 minutes at 37° C. After 30 minutes, the supernatant was collected, centrifuged to remove cells and debris, and analyzed for LTB4 using the Leukotriene B4 ELISA kit (Cayman Chemical 520111) as described above. Additionally, stimulated neutrophils were stained for activation markers and analyzed by flow cytometry as described above.

Q: With O=C(O)C1(c2ccc3c(c2)OC[C@H](Cc2ccc(-c4ccccc4)cc2)[C@H]3O)CCCC1 [CP-105696] as the molecule, how does the “effect of agent on ex vivo killing of tumor cells by neutrophils” value (from here on “effect of agent … by neutrophils”) (B16 cells) read?
A: prevented ex vivo killing of tumor cells

Q: Which “effect of agent on treatment-induced tumor cell death” value (B16 tumors) does the source give for N[C@@H](CCC(=O)N[C@@H](CS)C(=O)NCC(=O)O)C(=O)O [GSH, Reduced L-glutathione] here?
A: decreased tumor cell death in vivo

Q: And the “effect of agent … by neutrophils” value (B16 cells)?
A: blocked ex vivo killing of tumor cells

Q: What does the source list for CN(CCCOc1ccc(Cc2ccccc2)cc1)CCC(=O)O.Cl [SC57461A]?
A: effect of agent on treatment-induced tumor cell death (B16 tumors): prevented treatment-induced tumor cell death; effect of agent on ex vivo killing of tumor cells by neutrophils (B16 cells): prevented ex vivo killing of tumor cells

B1: C5a: recombinant mouse C5a (R&D Systems) (protein, UniProt P06684 679-755, looked up)
C5a anaphylatoxin: NLHLLRQKIEEQAAKYKHSVPKKCCYDGARVNFYETCEERVARVTIGPLCIRAFNECCTIANKIRKESPHKPVQLGR
modifications: C5a anaphylatoxin
Q: Which results are given for B1?
A: requirement for ex vivo killing of B16 cells by tumor-infiltrating neutrophils (B16 cells): required C5a or serum containing functional complement; neutrophil activation (naive neutrophils; in vitro): activated neutrophils; LTB4 production by neutrophils (naive neutrophils; in vitro stimulation): induced LTB4

B2: catalase: enzyme neutralizing hydrogen peroxide (C40, Sigma) (protein, UniProt P00432 2-527, looked up)
Catalase: ADNRDPASDQMKHWKEQRAAQKPDVLTTGGGNPVGDKLNSLTVGPRGPLLVQDVVFTDEMAHFDRERIPERVVHAKGAGAFGYFEVTHDITRYSKAKVFEHIGKRTPIAVRFSTVAGESGSADTVRDPRGFAVKFYTEDGNWDLVGNNTPIFFIRDALLFPSFIHSQKRNPQTHLKDPDMVWDFWSLRPESLHQVSFLFSDRGIPDGHRHMNGYGSHTFKLVNANGEAVYCKFHYKTDQGIKNLSVEDAARLAHEDPDYGLRDLFNAIATGNYPSWTLYIQVMTFSEAEIFPFNPFDLTKVWPHGDYPLIPVGKLVLNRNPVNYFAEVEQLAFDPSNMPPGIEPSPDKMLQGRLFAYPDTHRHRLGPNYLQIPVNCPYRARVANYQRDGPMCMMDNQGGAPNYYPNSFSAPEHQPSALEHRTHFSGDVQRFNSANDDNVTQVRTFYLKVLNEEQRKRLCENIAGHLKDAQLFIQKKAVKNFSDVHPEYGSRIQALLDKYNEEKPKNAVHTYVQHGSHLSAREKANL
Q: For B2, which “effect of agent … by neutrophils” value (B16 cells) is on record?
A: blocked ex vivo killing of tumor cells
